Assay [1] deals with G. lamblia trophozoites (luciferase expressing, WBC6). The assay is described as follows: microbe, parasite or virus in culture. The class given is cell-based, Giardia lamblia. Particulars: initial Pathogen Box screen, single concentration 16 µM, inhibition compared to DMSO wells. Summed up:
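Incubation ran 24 h at 37 °C under anaerobic conditions, with compound added in equal volume to trophozoites (WBC6, luciferase-expressing, 250,000 cells/mL). Bioluminescence was the read-out, cross-checked by MOXI Z counts on a duplicate plate; metronidazole served as control (1:2 dilutions from 40 μM).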

For assay [2], the system named is C. parvum (UGA1 Nluc expressing strain in HCT-8 cells). The assay is described as follows: microbe, parasite or virus in culture. In kind it is cell-based, Cryptosporidium parvum. The note with it: for Crypto (10 uM) Mean % inhibition: initial Pathogen Box screen, single concentration 10 µM, inhibition compared to DMSO wells. Summed up: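 Parasite growth quantified by NanoLuc luminescence from lysed infected HCT-8 cells, with EC50 fitted from dose curves. Compounds, single-dose 10 μM or serially diluted, were added to confluent 48 h monolayers before infection with bleached UGA1 Nluc oocysts.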

Turning to `CC(C(=O)Nc1ccc2oc(-c3ccncc3)nc2c1)c1ccccc1` (stereo not shown) [MMV688471], in assay [1], the “Giardia (16 uM) Mean % inhibition” value is reported as 19%. In addition, the “Crypto (10 uM) Mean % inhibition” value in assay [2] is “X* (Mean or standard deviation are negative but not significantly different from the control to be a growth promoter)”.
Taken in the same sequence, the figures for `CC(Oc1cccc(Cl)c1)C(=O)Nc1ccc2oc(-c3ccncc3)nc2c1` (stereo not shown) [MMV688472] were 55% and “X* (Mean or standard deviation are negative but not significantly different from the control to be a growth promoter)”.
For `COc1cc(C2=NCCN2)ccc1-n1cc(-c2cccc(C3=NCCN3)c2)nn1` [MMV688474], in that order: 18% and “X* (Mean or standard deviation are negative but not significantly different from the control to be a growth promoter)”.
On to `CC(=O)NCC1CN(c2ccc(-c3ccc(CO)cc3)c(F)c2)C(=O)O1` (stereo not shown) [MMV688508], for which the “Giardia (16 uM) Mean % inhibition” value in assay [1] is “X* (Mean or standard deviation are negative but not significantly different from the control to be a growth promoter)”. The “Crypto (10 uM) Mean % inhibition” value in assay [2] was “X* (Mean or standard deviation are negative but not significantly different from the control to be a growth promoter)”.
As to `O=C(OCc1ccccc1)N1CCC(c2cc(-c3ccncc3)c(-c3ccc(F)cc3)[nH]2)CC1` [MMV688509], the “Giardia (16 uM) Mean % inhibition” value in assay [1] was 41%. In addition, the “Crypto (10 uM) Mean % inhibition” value in assay [2] is on record as “X* (Mean or standard deviation are negative but not significantly different from the control to be a growth promoter)”.
In the case of `N=C(N)c1ccc(-c2cc(-c3ccccc3)on2)cc1` [MMV688514], the “Giardia (16 uM) Mean % inhibition” value in assay [1] is on record as 36%. Moreover, the “Crypto (10 uM) Mean % inhibition” value in assay [2] is listed as 79%.
Turning to `CC(C)(C)C(=O)N(CCCCCCN1C[C@H](O)[C@@H](O)[C@H](O)[C@H]1CO)C1CCCCCC1` [MMV688543], the “Giardia (16 uM) Mean % inhibition” value in assay [1] is listed as “X* (Mean or standard deviation are negative but not significantly different from the control to be a growth promoter)”. Moreover, the “Crypto (10 uM) Mean % inhibition” value in assay [2] is “X* (Mean or standard deviation are negative but not significantly different from the control to be a growth promoter)”.
Regarding `COc1ccc(C2=NCCN2)cc1-c1cn(-c2cccc(C3=NCCN3)c2)nn1` [MMV688547], in assay [1], the “Giardia (16 uM) Mean % inhibition” value turned out to be 33%. For the same compound, the “Crypto (10 uM) Mean % inhibition” value in assay [2] stood at 45%.
For `CC(C)(C)n1nc(-c2ccccc2)c2c(N)ncnc21` [MMV688548], in that order: 63% and 94%.
As for `CCc1ccccc1-n1c(C)cn2c3c(=O)n(C(C(=O)OC)C(C)C)c(=O)n(C)c3nc12` (stereo not shown) [MMV688550], the “Giardia (16 uM) Mean % inhibition” value in assay [1] is “X* (Mean or standard deviation are negative but not significantly different from the control to be a growth promoter)”. Besides, in assay [2], the “Crypto (10 uM) Mean % inhibition” value was 58%.
With `Cc1nn(C(=O)Nc2cccc(C(F)(F)F)c2)c(C)c1Sc1ncccn1` [MMV688552], the “Giardia (16 uM) Mean % inhibition” value in assay [1] was “X* (Mean or standard deviation are negative but not significantly different from the control to be a growth promoter)”. In addition, the “Crypto (10 uM) Mean % inhibition” value in assay [2] is given as “X* (Mean or standard deviation are negative but not significantly different from the control to be a growth promoter)”.
In the case of `O=C(NCc1ccoc1)N1CCN(Cc2ccc3c(c2)OCO3)CC1` [MMV688553], the “Giardia (16 uM) Mean % inhibition” value in assay [1] was determined as 50%. Moreover, in assay [2], the “Crypto (10 uM) Mean % inhibition” value worked out at 56%.
For `CNc1snc(C)c1C(=O)NCCOc1ccc(OC)cc1` [MMV688554], in that order: “X* (Mean or standard deviation are negative but not significantly different from the control to be a growth promoter)” and “X* (Mean or standard deviation are negative but not significantly different from the control to be a growth promoter)”.
Taken in the same sequence, the figures for `O=C(NCc1ccco1)N1CCN(Cc2ccc(Cl)s2)CC1` [MMV688555] were 34% and “X* (Mean or standard deviation are negative but not significantly different from the control to be a growth promoter)”.
In the case of `NCC(c1cccs1)S(=O)(=O)c1ccccc1` (stereo not shown) [MMV688557], the “Giardia (16 uM) Mean % inhibition” value in assay [1] is -0.156%. Moreover, the “Crypto (10 uM) Mean % inhibition” value in assay [2] is recorded as 81%.
For `CN1CCC(c2cc(-c3ccncc3)c(-c3ccc(F)cc3)[nH]2)CC1` [MMV688703], in that order: 18% and 84%.
For `Cc1cc2nc(NC(=O)C(C)(C)C)nc(Cl)c2n1Cc1ccc(Cl)cc1` [MMV688704], in that order: 42% and 76%.
Taken in the same sequence, the figures for `CO/N=C(/C(=O)OC)c1ccccc1CO/N=C(/C)c1cccc(C(F)(F)F)c1` [MMV688754] were 26% and “X* (Mean or standard deviation are negative but not significantly different from the control to be a growth promoter)”.
Regarding `CC(=O)NC[C@H]1CN(c2ccc(N3CCSCC3)c(F)c2)C(=O)O1` [MMV688756], the “Giardia (16 uM) Mean % inhibition” value in assay [1] worked out at 22%. Also, the “Crypto (10 uM) Mean % inhibition” value in assay [2] is 39%.
Taken in the same sequence, the figures for `CS(=O)(=O)c1ccc(C(=O)N(CC2CCCO2)c2nc3ccccc3s2)cc1[N+](=O)[O-]` (stereo not shown) [MMV688761] were 63% and 77%.
`c1ccc(-c2[nH]c3ccccc3c2C(c2ccccn2)N2CCCC2)cc1` (stereo not shown) [MMV688762]: the “Giardia (16 uM) Mean % inhibition” value in assay [1] amounted to 22%. In addition, the “Crypto (10 uM) Mean % inhibition” value in assay [2] is recorded as “X* (Mean or standard deviation are negative but not significantly different from the control to be a growth promoter)”.
For `CNc1nnc(Sc2cnn(-c3ccccc3)c(=O)c2Cl)s1` [MMV688763], in that order: “X* (Mean or standard deviation are negative but not significantly different from the control to be a growth promoter)” and 49%.
Taken in the same sequence, the figures for `COc1ccc(-c2onc(C(F)(F)F)c2-c2ccc(Cl)cc2)c(O)c1` [MMV688766] were 29% and “X* (Mean or standard deviation are negative but not significantly different from the control to be a growth promoter)”.
With `Cc1[nH]c2ccccc2c1C(c1cccs1)N1CCN(C)CC1` (stereo not shown) [MMV688768], the “Giardia (16 uM) Mean % inhibition” value in assay [1] is 9%. Besides, the “Crypto (10 uM) Mean % inhibition” value in assay [2] amounted to 66%.
As to `Cc1ccccc1C(=O)N1NC(=Nc2ccccc2)SC1(C)C` [MMV688771], the “Giardia (16 uM) Mean % inhibition” value in assay [1] is 51%. Further, the “Crypto (10 uM) Mean % inhibition” value in assay [2] is on record as 82%.
In the case of `O=C(Cn1ccnc1[N+](=O)[O-])NCc1ccccc1` [MMV688773], in assay [1], the “Giardia (16 uM) Mean % inhibition” value was 57%. For the same compound, the “Crypto (10 uM) Mean % inhibition” value in assay [2] is 55%.
With `CC[C@@H]([C@H](C)O)n1ncn(-c2ccc(N3CCN(c4ccc(OC[C@@H]5CO[C@@](Cn6cncn6)(c6ccc(F)cc6F)C5)cc4)CC3)cc2)c1=O` [MMV688774], the “Giardia (16 uM) Mean % inhibition” value in assay [1] is given as “X* (Mean or standard deviation are negative but not significantly different from the control to be a growth promoter)”. For the same compound, in assay [2], the “Crypto (10 uM) Mean % inhibition” value was 90%.
Taken in the same sequence, the figures for `Cc1cccnc1NC(=O)c1cccc(OCc2c(C)noc2C)c1` [MMV688793] were 45% and 63%.
For `O=C(NCCc1ccn(-c2ccccc2)n1)C1CCCCC1` [MMV688795], in that order: 29% and “X* (Mean or standard deviation are negative but not significantly different from the control to be a growth promoter)”.
Taken in the same sequence, the figures for `O=C(NCc1nnc2n1CCCCC2)c1ccc(-c2ccc(F)cc2)o1` [MMV688796] were 52% and 44%.
`CC1CCCCN1C(=O)NCCc1coc(-c2ccc(F)cc2)n1` (stereo not shown) [MMV688797]: the “Giardia (16 uM) Mean % inhibition” value in assay [1] turned out to be 23%. Also, in assay [2], the “Crypto (10 uM) Mean % inhibition” value is listed as “X* (Mean or standard deviation are negative but not significantly different from the control to be a growth promoter)”.
For `CS(=O)(=O)c1ccccc1C(=O)N(Cc1ccccc1)c1ccccc1` [MMV688798], the “Giardia (16 uM) Mean % inhibition” value in assay [1] is given as 9%. For the same compound, in assay [2], the “Crypto (10 uM) Mean % inhibition” value is 46%.
Regarding `O=C(N[C@H](Cc1ccccc1)C(=O)Nc1ccccc1N1CCOCC1)c1cccs1` [MMV688845], the “Giardia (16 uM) Mean % inhibition” value in assay [1] was 25%. Moreover, the “Crypto (10 uM) Mean % inhibition” value in assay [2] was found to be 77%.
Taken in the same sequence, the figures for `Cc1ccccc1CN1CCC(O)(c2ccc(Cl)c(C(F)(F)F)c2)CC1` [MMV688846] were 35% and “X* (Mean or standard deviation are negative but not significantly different from the control to be a growth promoter)”.
Taken in the same sequence, the figures for `CC(C)(C)n1nc(Cc2ccc(F)c(Cl)c2)c2c(N)ncnc21` [MMV688852] were 27% and 80%.
Regarding `CCOc1ccc2cc(-c3nn(C(C)(C)C)c(N)c3C(N)=O)cnc2c1` [MMV688853], the “Giardia (16 uM) Mean % inhibition” value in assay [1] is listed as “X* (Mean or standard deviation are negative but not significantly different from the control to be a growth promoter)”. Further, in assay [2] (10 μM, 48 hours), the “C. parvum cell growth inhibition in the initial screen” value is listed as not below 95%. Besides, in assay [2], the “Crypto (10 uM) Mean % inhibition” value came to 96%.
In the case of `CN1CCN(c2cc(-c3ccc(F)cc3)nc(-c3ccncc3)n2)CC1` [MMV688888], the “Giardia (16 uM) Mean % inhibition” value in assay [1] was 62%. Also, the “Crypto (10 uM) Mean % inhibition” value in assay [2] is reported as 84%.
For `Clc1ccc(CCNc2cc(-c3ccccc3)nc3ncnn23)cc1` [MMV688889], in that order: 65% and 51%.
Taken in the same sequence, the figures for `COc1cc(Br)cc2cc(C(=O)Nc3cccc(C(F)(F)F)c3)c(=O)oc12` [MMV688891] were 7.41% and 51%.
